Values quoted from earlier work, collected in publication PMC6777988 (ACS infectious diseases, 2018).

Experiments:
C. parvum = conditions: combined with partial CpCDPK1 siRNA knockdown
Cryptosporidium = conditions: immunocompromised patients and malnourished children

Row | SMILES | effect on proliferation of C. parvum parasites (C. parvum) | efficacy in patients (Cryptosporidium)
1 | CCOc1ccc2cc(-c3nn(C(C)(C)C)c(N)c3C(N)=O)cnc2c1 [Compound 1517] | further inhibitory effects | 
2 | CC(=O)Oc1ccccc1C(=O)Nc1ncc([N+](=O)[O-])s1 [Nitazoxanide, nitazoxanide] |  | minimal efficacy
3 | CCOc1ccc2cc(-c3nn(CC4CCN(C)CC4)c4ncnc(N)c34)ccc2c1 [Compound 1294] | further inhibitory effects | 
